Measured values as given in US20250262201A1, “COMPOUNDS AND METHODS USEFUL FOR STABILIZING PHENYLALANINE HYDROXYLASE MUTATIONS” (Agios Pharmaceuticals, Inc., priority 2022, published 2025).

Biological target: T1, human PAH with the R408W mutation (Homo sapiens, UniProt P00439, R408W)
T1 construct: expressed in transfected cells
T1 sequence (P00439 1-452 R408W): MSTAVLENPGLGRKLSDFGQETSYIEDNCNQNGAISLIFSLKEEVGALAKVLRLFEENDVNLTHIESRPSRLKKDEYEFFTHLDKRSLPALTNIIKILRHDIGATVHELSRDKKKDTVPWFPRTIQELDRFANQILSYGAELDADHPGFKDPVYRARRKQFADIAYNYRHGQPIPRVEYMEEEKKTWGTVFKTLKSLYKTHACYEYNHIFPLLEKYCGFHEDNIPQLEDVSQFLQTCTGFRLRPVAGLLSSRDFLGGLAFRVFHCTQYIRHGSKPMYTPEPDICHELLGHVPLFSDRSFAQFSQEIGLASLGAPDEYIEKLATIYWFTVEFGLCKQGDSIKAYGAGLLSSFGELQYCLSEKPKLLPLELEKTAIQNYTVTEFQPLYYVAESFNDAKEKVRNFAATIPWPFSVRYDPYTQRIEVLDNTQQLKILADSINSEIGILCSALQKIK
Assay: Cell Based Phenylalanine Flux Assay
Set-up: scale not given here
Conditions: A375 R408W cells, 24 hrs with compound, then 20 μM sepiapterin and 800 μM 13C9,15N-Phenylalanine for 4 hours; 13C-Tyrosine by LC-MS; average where tested multiple times

AC50	Compound
E, E	Cn1cc(-c2nc(C(F)F)c(C(=O)N3CCc4[nH]cnc4C3c3ncc4ccccc4n3)o2)cn1 (centres unmarked)
E, E	O=C(c1oc(-c2ccccn2)nc1C(F)F)N1CCc2[nH]cnc2C1c1ncc2ccccc2n1 (centres unmarked)
E, E	CC1CN(C(=O)c2nnc(N3CCN(C)CC3)o2)C(c2cc3ccccc3cn2)c2nc[nH]c21 [(4S, 7S) diastereomer of 3-[7-methyl-5-[5-(4-methylpiperazin]

Compound	AC50
Cc1nc(C(F)(F)F)c(C(=O)N2CCc3nc[nH]c3[C@@H]2c2cn3ccccc3n2)o1 (single isomer, unassigned)	E, E

Same assay, conditions: A375 R408W cells, 24 hrs with compound, then 20 μM sepiapterin and 800 μM 13C9,15N-Phenylalanine for 4 hours; 13C-Tyrosine by LC-MS; average where tested multiple times; read-out: AC50

AC50 [nM]	Compound
1000 to 5000	COCCNc1nnc(C(=O)N2CCc3[nH]cnc3C2c2ccc3ccccc3n2)o1 (centres unmarked)
> 5000	CN(C)Cc1nnc(C(=O)N2CCc3[nH]cnc3C2c2ccc3ccccc3n2)o1 (centres unmarked)
1000 to 5000	O=C(c1cnco1)N1CCc2[nH]cnc2C1c1ccc2ccccc2n1 (centres unmarked)
> 5000	Cn1nc(COC(F)(F)F)cc1C(=O)N1CCc2[nH]cnc2C1c1ccc2ccccc2n1 (centres unmarked)
1000 to 5000	O=C(c1ocnc1-c1ccccn1)N1CCc2[nH]cnc2C1c1ccc2ccccc2n1 (centres unmarked)
1000 to 5000	Cn1cc(-c2nnc(C(=O)N3CCc4[nH]cnc4C3c3cc4ccccc4nn3)o2)cn1 (centres unmarked)

Compound	AC50 [nM]
C[C@@H](O)c1nnc(C(=O)N2CCc3[nH]cnc3[C@H]2c2cc3ccccc3nn2)o1 (single isomer, unassigned)	> 5000
Cc1nc(C(C)(C)O)oc1C(=O)N1CCc2[nH]cnc2[C@H]1c1cc2ccccc2cn1 (single isomer, unassigned)	1000 to 5000

Same assay, conditions: A375 cells expressing human R408W PAH; 24 hrs compound incubation; 13C-Tyrosine by LC-MS; average where tested multiple times; read-out: AC50

AC50 [nM]	Compound
< 500	C[C@H]1CN(C(=O)c2oc(C(C)(C)O)nc2C2CC2)[C@H](c2cc3ccccc3cn2)c2nc[nH]c21 [Example 399, (4-cyclopropyl-2-(2-hydroxypropan-2-yl)oxazol-5-yl)((4R,7S)-4-(isoquinolin-3-yl)-7-methyl-6,7-dihydro-1H-imidazo[4,5-c]pyridin-5(4H)-yl)methanone]
> 5000	Cn1cc(-c2nnc(C(=O)N3CCc4[nH]cnc4[C@@H]3c3ncc4ccccc4n3)o2)cn1 [Example 144, (R)-(5-(1-methyl-1H-pyrazol-4-yl)-1,3,4-oxadiazol-2-yl)(4-(quinazolin-2-yl)-6,7-dihydro-1H-imidazo[4,5-c]pyridin-5(4H)-yl)methanone]
500 to 1000	CC(C)(F)c1ncc(C(=O)N2CCc3[nH]cnc3C2c2ccc3ccccc3n2)s1 (stereo in doubt) [Example 15, (R)-(2-(2-fluoropropan-2-yl)thiazol-5-yl)(4-(quinolin-2-yl)-6,7-dihydro-1H-imidazo[4,5-c]pyridin-5(4H)-yl)methanone]
1000 to 5000	O=C(c1nnc(-c2cc(C(F)(F)F)ccn2)o1)N1CCc2[nH]cnc2[C@@H]1c1ncc2ccccc2n1 [Example 174, (R)-(4-(quinazolin-2-yl)-6,7-dihydro-1H-imidazo[4,5-c]pyridin-5(4H)-yl)(5-(4-(trifluoromethyl)pyridin-2-yl)-1,3,4-oxadiazol-2-yl)methanone]
< 500	O=C([C@H]1CC1(F)F)N1CCc2[nH]cnc2[C@@H]1c1ccc2ccccc2n1 (stereo in doubt) [Example 49, ((R)-2,2-difluorocyclopropyl)((R)-4-(quinolin-2-yl)-6,7-dihydro-1H-imidazo[4,5-c]pyridin-5(4H)-yl)methanone]
< 500	Cn1nc(Cl)cc1C(=O)N1CCc2[nH]cnc2C1c1ccc2ccccc2n1 (stereo in doubt) [Example 263, (R)-(3-chloro-1-methyl-1H-pyrazol-5-yl)(4-(quinolin-2-yl)-6,7-dihydro-1H-imidazo[4,5-c]pyridin-5(4H)-yl)methanone]
< 500	O=C(c1nnc(-c2c(F)cccc2F)o1)N1CCc2[nH]cnc2C1c1ccc2ccccc2n1 (stereo in doubt) [Example 23, (R)-(5-(2,6-difluorophenyl)-1,3,4-oxadiazol-2-yl)(4-(quinolin-2-yl)-6,7-dihydro-1H-imidazo[4,5-c]pyridin-5(4H)-yl)methanone]
> 5000	Cc1nc(C2CC2)oc1C(=O)N1CCc2[nH]cnc2C1c1ccc2ccccc2n1 (stereo in doubt) [Example 36, (S)-(2-cyclopropyl-4-methyloxazol-5-yl)(4-(quinolin-2-yl)-6,7-dihydro-1H-imidazo[4,5-c]pyridin-5(4H)-yl)methanone]
< 500	C[C@@H]1CN(C(=O)c2cnco2)[C@H](c2cc3ccccc3cn2)c2nc[nH]c21 [Example 505, ((4R,7R)-4-(isoquinolin-3-yl)-7-methyl-6,7-dihydro-1H-imidazo[4,5-c]pyridin-5(4H)-yl)(oxazol-5-yl)methanone]
< 500	O=C(c1cnn2cc(CN3CCOCC3)ccc12)N1CCc2[nH]cnc2[C@H]1c1cc2ccccc2cn1 [Example 484, (R)-(4-(isoquinolin-3-yl)-6,7-dihydro-1H-imidazo[4,5-c]pyridin-5(4H)-yl)(6-(morpholinomethyl)pyrazolo[1,5-a]pyridin-3-yl)methanone]
> 5000	FC(F)(F)c1cnc(N2CCc3[nH]cnc3[C@@H]2c2cn3ccccc3n2)nc1 [Example 232, (S)-4-(imidazo[1,2-a]pyridin-2-yl)-5-(5-(trifluoromethyl)pyrimidin-2-yl)-4,5,6,7-tetrahydro-1H-imidazo[4,5-c]pyridine]
1000 to 5000	CC(C)(F)c1nnc(C(=O)N2CCc3[nH]cnc3C2c2ccc3ccccc3n2)o1 (stereo in doubt) [Example 106, (S)-(5-(2-fluoropropan-2-yl)-1,3,4-oxadiazol-2-yl)(4-(quinolin-2-yl)-6,7-dihydro-1H-imidazo[4,5-c]pyridin-5(4H)-yl)methanone]
500 to 1000	C[C@@H](O)c1nnc(C(=O)N2CCc3[nH]cnc3[C@H]2c2cc3ccccc3cn2)o1 [Example 465, (5-((R)-1-hydroxyethyl)-1,3,4-oxadiazol-2-yl)((R)-4-(isoquinolin-3-yl)-6,7-dihydro-1H-imidazo[4,5-c]pyridin-5(4H)-yl)methanone]
1000 to 5000	O=C(CCc1nnc(C(F)F)o1)N1CCc2[nH]cnc2[C@H]1c1cc2ccccc2cn1 [Example 346, (R)-3-(5-(difluoromethyl)-1,3,4-oxadiazol-2-yl)-1-(4-(isoquinolin-3-yl)-6,7-dihydro-1H-imidazo[4,5-c]pyridin-5(4H)-yl)propan-1-one]
1000 to 5000	CC(C)(O)c1noc(C(=O)N2CCc3[nH]cnc3[C@H]2c2cc3ccccc3cn2)n1 [Example 422, (R)-(3-(2-hydroxypropan-2-yl)-1,2,4-oxadiazol-5-yl)(4-(isoquinolin-3-yl)-6,7-dihydro-1H-imidazo[4,5-c]pyridin-5(4H)-yl)methanone]
500 to 1000	O=C(c1nnc(C2CC2)o1)N1CCc2[nH]cnc2C1c1ccc2ccccc2n1 (stereo in doubt) [Example 9, (R)-(5-cyclopropyl-1,3,4-oxadiazol-2-yl)(4-(quinolin-2-yl)-6,7-dihydro-1H-imidazo[4,5-c]pyridin-5(4H)-yl)methanone]
> 5000	CC(C)(F)c1ncc(C(=O)N2CCc3[nH]cnc3C2c2ccc3ccccc3n2)s1 (stereo in doubt) [Example 16, (S)-(2-(2-fluoropropan-2-yl)thiazol-5-yl)(4-(quinolin-2-yl)-6,7-dihydro-1H-imidazo[4,5-c]pyridin-5(4H)-yl)methanone]
> 5000	COCc1ccc2c(C(=O)N3CCc4[nH]cnc4[C@@H]3c3cc4ccccc4cn3)cnn2c1 [Example 315, (S)-(4-(isoquinolin-3-yl)-6,7-dihydro-1H-imidazo[4,5-c]pyridin-5(4H)-yl)(6-(methoxymethyl)pyrazolo[1,5-a]pyridin-3-yl)methanone]
< 500	O=C(c1ccnn1C(F)F)N1CCc2[nH]cnc2[C@H]1c1cc2ccccc2nn1 [Example 213, (S)-(4-(cinnolin-3-yl)-6,7-dihydro-1H-imidazo[4,5-c]pyridin-5(4H)-yl)(1-(difluoromethyl)-1H-pyrazol-5-yl)methanone]
< 500	Cn1cc(-c2ncc(C(=O)N3CCc4[nH]cnc4[C@H]3c3cc4ccccc4cn3)o2)cn1 [Example 311, (R)-(4-(isoquinolin-3-yl)-6,7-dihydro-1H-imidazo[4,5-c]pyridin-5(4H)-yl)(2-(1-methyl-1H-pyrazol-4-yl)oxazol-5-yl)methanone]
> 5000	(R)-(5-(1-methyl-1H-imidazol-4-yl)-1,3-oxadiazol-2- yl)(4-(quinazolin-2-yl)-6,7-dihydro-1H-imidazo[4,5- c]pyridin-5(4H)-yl)methanone [Example 198]
< 500	Cc1nc(C(C)(C)F)oc1C(=O)N1CCc2[nH]cnc2C1c1ccc2ccccc2n1 (stereo in doubt) [Example 22, (R)-(2-(2-fluoropropan-2-yl)-4-methyloxazol-5-yl)(4-(quinolin-2-yl)-6,7-dihydro-1H-imidazo[4,5-c]pyridin-5(4H)-yl)methanone]
< 500	C[C@@H]1CN(C(=O)c2nnc(C(C)(C)F)o2)[C@H](c2cc3ccccc3cn2)c2nc[nH]c21 [Example 501, (5-(2-fluoropropan-2-yl)-1,3,4-oxadiazol-2-yl)((4R,7R)-4-(isoquinolin-3-yl)-7-methyl-6,7-dihydro-1H-imidazo[4,5-c]pyridin-5(4H)-yl)methanone]
